Experimental findings from ChEMBL document CHEMBL1799982, “Synthesis, protein kinase inhibitory potencies, and in vitro antiproliferative activities of meridianin derivatives” (J Med Chem, 2011) are described below.

In assay [1] the target is Dual specificity tyrosine-phosphorylation-regulated kinase 1A (Rattus norvegicus, UniProt Q63470). The assay is described as follows: Inhibition of rat recombinant GST-tagged DYRK1A using myelin protein as substrate and [gamma32]-ATP after 30 mins by scintillation counting.
The target in assay [2] is Dual specificity protein kinase CLK1 (Homo sapiens, UniProt P49759).
Sequence of Dual specificity protein kinase CLK1 (P49759 whole entry): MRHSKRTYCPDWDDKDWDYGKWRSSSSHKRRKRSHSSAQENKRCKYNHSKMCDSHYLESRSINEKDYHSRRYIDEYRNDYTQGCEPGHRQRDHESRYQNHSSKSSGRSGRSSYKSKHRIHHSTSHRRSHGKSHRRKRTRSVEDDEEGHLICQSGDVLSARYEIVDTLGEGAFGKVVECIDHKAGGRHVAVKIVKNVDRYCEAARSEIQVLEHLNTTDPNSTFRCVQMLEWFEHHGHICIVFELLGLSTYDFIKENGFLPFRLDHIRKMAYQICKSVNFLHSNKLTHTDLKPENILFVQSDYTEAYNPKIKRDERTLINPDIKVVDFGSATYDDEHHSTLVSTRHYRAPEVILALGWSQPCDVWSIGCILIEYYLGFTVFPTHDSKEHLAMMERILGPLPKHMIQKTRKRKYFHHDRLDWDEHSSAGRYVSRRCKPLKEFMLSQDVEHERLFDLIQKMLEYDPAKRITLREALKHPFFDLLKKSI
For assay [3], the target named is Cyclin-dependent kinase 5/CDK5 activator 1 (Homo sapiens, UniProt Q00535). Description: Inhibition of human recombinant CDK5/p25 using Histone H1 and [gamma32]-ATP after 30 mins by scintillation counting. The assay is classed as protein-complex assay.
Sequence of Cyclin-dependent kinase 5/CDK5 activator 1 (Q00535 whole entry): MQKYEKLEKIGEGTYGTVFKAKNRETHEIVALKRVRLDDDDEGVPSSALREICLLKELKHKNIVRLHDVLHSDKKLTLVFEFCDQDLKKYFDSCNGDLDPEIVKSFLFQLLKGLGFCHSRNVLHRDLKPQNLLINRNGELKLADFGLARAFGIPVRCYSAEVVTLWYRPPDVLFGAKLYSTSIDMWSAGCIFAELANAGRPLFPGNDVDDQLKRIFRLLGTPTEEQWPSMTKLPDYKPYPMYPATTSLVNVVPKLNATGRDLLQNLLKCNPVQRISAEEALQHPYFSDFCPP
Sequence of Cyclin-dependent kinase 5/CDK5 activator 1 (Q15078 whole entry, further chain): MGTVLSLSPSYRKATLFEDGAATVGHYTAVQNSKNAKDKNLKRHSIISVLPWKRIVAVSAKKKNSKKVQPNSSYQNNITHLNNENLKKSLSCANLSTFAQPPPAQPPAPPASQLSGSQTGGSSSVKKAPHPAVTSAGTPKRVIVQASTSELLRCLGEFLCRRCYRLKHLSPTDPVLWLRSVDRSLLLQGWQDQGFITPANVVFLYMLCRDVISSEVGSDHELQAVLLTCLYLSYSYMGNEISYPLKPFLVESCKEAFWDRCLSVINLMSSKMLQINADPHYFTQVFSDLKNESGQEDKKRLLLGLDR
For assay [4], the target named is Glycogen synthase kinase-3 (Sus scrofa, UniProt B2LUN4+I6LNT8). Description: Inhibition of pig brain GSK-3alpha/beta using YRRAAVPPSPSLSRHSSPHQSpEDEEE as substrate.
The test system of assay [5] is DU-145. The assay is described as follows: Antiproliferative activity against human DU145 cells after 48 hrs by resazurin reduction test. In kind it is functional, cell-based. As to conditions: DU-145, 48 h. Background: Resazurin is reduced to fluorescent resorufin, in cell work by metabolically active cells.
Assay [6] relates to PA-1. Description: Antiproliferative activity against human PA1 cells after 48 hrs by resazurin reduction test. In kind it is functional, cell-based. The following applies: PA-1, 48 h.
In assay [7] the test system is SH-SY5Y. The assay is described as follows: Antiproliferative activity against human SH-SY5Y cells by MTS reduction assay. On the technique in general: Tetrazolium assays rely on reduction of a dye to a coloured formazan, in cell work by metabolically active cells.
The test system of assay [8] is IMR-32. The assay is described as follows: Antiproliferative activity against human IMR32 cells by MTS reduction assay.
The test system of assay [9] is MCF7. The assay is described as follows: Antiproliferative activity against human MCF7 cells after 48 hrs by resazurin reduction test. The following applies: MCF7, 48 h.
Assay [10] is described as follows: Inhibition of pig brain CK1 delta/epsilon using RRKHAAIGpSAYSITA as substrate. Also on record: species or system Sus scrofa.
The subject of assay [11] is HT-22. The assay is described as follows: Antiproliferative activity against mouse HT22 cells by MTS reduction assay.
In assay [12] the test system is PC-3. The assay is described as follows: Antiproliferative activity against human PC3 cells after 48 hrs by resazurin reduction test. The following applies: PC-3, 48 h.
A short description of assay [13]: Antiproliferative activity against human primary fibroblasts after 48 hrs by resazurin reduction test. The assay is classed as cell-based. As to conditions: Fibroblast.

With `Nc1ncc(I)c(-c2c[nH]c3ccc([N+](=O)[O-])cc23)n1`, the IC50 (usually the midpoint of a concentration-inhibition curve) in assay [1] is 250 nM; in assay [2], 120 nM; in [3] it was 1.6 µM; in assay [4], 0.66 µM; in [5], 13.3 µM; in [6] it was 8.4 µM. For the same molecule, the IC50 in [7] is greater than 25 µM; in assay [8], 10 µM; in assay [9] it was greater than 25 µM; in assay [10], 420 nM; in [11], 20 µM; in [12] it was 26 µM. In assay [13], 19 µM corresponded to half-maximal inhibition (IC50).
On to `Nc1ncc(I)c(-c2c[nH]c3cc(Br)ccc23)n1`, for which the 50% inhibitory concentration (IC50) in [1] is 34 nM; in [2] it was 32 nM; in assay [3], 0.68 µM; in [4], 1.1 µM; in assay [5], less than 1 µM; in [6], less than 1 µM. The IC50 in [7] amounted to 3.2 µM; in assay [8], 3.8 µM; in [9], 5.2 µM; in assay [10], 700 nM; in assay [11], 5.1 µM; in [12], 2.9 µM. The molecule also returned an IC50 in assay [13] of 3.5 µM.
Take `Nc1ccc2[nH]cc(-c3nc(N)ncc3I)c2c1`: the IC50 in assay [1] was 2300 nM; in assay [2], 610 nM; in assay [3], greater than 10 µM; in [4], greater than 10 µM; in assay [5] it was 40 µM; in assay [6] it was 11 µM. Further, the IC50 was greater than 10 µM in assay [7]; greater than 10 µM in assay [8]; greater than 10 µM in assay [9]; 270 nM in assay [10]; greater than 10 µM in assay [11]; 48 µM in assay [12]. Further, in [13], the midpoint of inhibition, the IC50, lay at 44 µM.
As for `CC(=O)Nc1ccc(-c2cnc(N)nc2-c2c[nH]c3cc(Br)ccc23)cc1`, the IC50 in [1] is 3100 nM; in [2], 530 nM; in assay [3], greater than 10 µM; in assay [4], 1.6 µM; in assay [5], 20 µM; in [6] it was 12 µM. Moreover, the IC50 in [7] is greater than 10 µM; in assay [8], greater than 10 µM; in assay [9] it was greater than 10 µM; in assay [10] it was 8100 nM; in assay [11] it was greater than 10 µM; in [12], 14 µM. In addition, the IC50 in assay [13] turned out to be 24 µM.
As to `COc1cccc(-c2cnc(N)nc2-c2c[nH]c3c(Br)cccc23)c1`, the IC50 in assay [1] was 850 nM; in assay [2], 870 nM; in assay [3] it was greater than 10 µM; in assay [4], greater than 10 µM; in [5] it was 33 µM; in [6], 13 µM. The IC50 in [7] was greater than 10 µM; in assay [8] it was greater than 10 µM; in assay [9] it was greater than 10 µM; in assay [10], 4200 nM; in [11], greater than 10 µM; in assay [12] it was 29 µM. Also, inhibition in assay [13] was half-maximal at 31 µM (IC50).
Consider `Nc1ncc(I)c(-c2c[nH]c3c(N)cccc23)n1`, for which the IC50 in [1] was determined as 110 nM; in [2], 26 nM; in [3] it was 0.66 µM; in [4] it was 4.4 µM; in assay [5], 6.1 µM; in [6], 2.5 µM. Also, the IC50 in assay [7] was determined as 9 µM; in assay [8] it was 4 µM; in [9], 20 µM; in [10] it was 1100 nM; in [11], 12 µM; in assay [12], 14 µM. Moreover, in [13], the IC50 turned out to be 10.6 µM.
As for `Nc1ncc(I)c(-c2c[nH]c3c(Br)cccc23)n1`, the IC50 in [1] came out at 39 nM; in [2], 42 nM; in assay [3], 2.1 µM; in assay [4] it was 4 µM; in assay [5] it was 4.2 µM; in [6], 2 µM. Besides, the IC50 in assay [7] was found to be 8 µM; in assay [8] it was 7.3 µM; in assay [9], 17 µM; in assay [10], 1600 nM; in [11], 12 µM; in assay [12] it was 15 µM. Besides, half-maximal inhibition in assay [13] (IC50) was put at 10 µM.
For the molecule `CC(=O)c1ccc(-c2cnc(N)nc2-c2c[nH]c3cc(Br)ccc23)cc1`, the IC50 in assay [1] was greater than 10000 nM; in [2], 1800 nM; in assay [3], greater than 10 µM; in assay [4], 2 µM; in assay [5], less than 0.6 µM; in assay [6] it was less than 0.6 µM. Moreover, the IC50 is 0.4 µM in assay [7]; 0.33 µM in [8]; 1 µM in [9]; greater than 10000 nM in [10]; 2.5 µM in assay [11]; less than 0.6 µM in [12]. Further, the IC50 in [13] is less than 0.6 µM.
For `CC(=O)Nc1ccc(-c2cnc(N)nc2-c2c[nH]c3c(Br)cccc23)cc1`, the IC50 in [1] stood at 190 nM; in assay [2], 87 nM; in assay [3], 7.5 µM; in assay [4] it was 2.2 µM; in [5], 13 µM; in [6] it was 3 µM. Further, the IC50 is 25 µM in assay [7]; 25 µM in [8]; greater than 25 µM in assay [9]; greater than 10000 nM in assay [10]; greater than 25 µM in assay [11]; 5 µM in assay [12]. In assay [13], this molecule showed an IC50 of 8 µM.
With `CC(=O)c1ccc(-c2cnc(N)nc2-c2c[nH]c3c(Br)cccc23)cc1`, the IC50 is 290 nM in assay [1]; 380 nM in assay [2]; greater than 10 µM in assay [3]; 4.5 µM in [4]; 5.7 µM in assay [5]; 0.8 µM in [6]. Further, the IC50 in assay [7] is greater than 10 µM; in assay [8], greater than 10 µM; in [9], greater than 10 µM; in [10], greater than 10000 nM; in assay [11], greater than 10 µM; in assay [12], 3.6 µM. In addition, in assay [13], the IC50 was determined as 18.4 µM.
As to `Nc1ncc(I)c(-c2c[nH]c3cccc([N+](=O)[O-])c23)n1`, the IC50 in assay [1] is 9100 nM; in assay [2], 7100 nM; in [3], greater than 10 µM; in [4], greater than 10 µM; in assay [5], 5.4 µM; in assay [6], 3.3 µM. For the same molecule, the IC50 in [7] was greater than 10 µM; in [8] it was greater than 10 µM; in assay [9], greater than 10 µM; in assay [10] it was greater than 10000 nM; in [11], greater than 10 µM; in assay [12], 7 µM. The molecule further had an IC50 in assay [13] of 5 µM.
Regarding `Nc1ccc2c(-c3nc(N)ncc3I)c[nH]c2c1`, the IC50 in assay [1] stood at 220 nM; in assay [2] it was 80 nM; in [3] it was 6.2 µM; in assay [4], 4.2 µM; in assay [5], 26 µM; in assay [6] it was 13 µM. Moreover, the IC50 is greater than 10 µM in assay [7]; greater than 10 µM in assay [8]; greater than 10 µM in assay [9]; 510 nM in [10]; greater than 10 µM in [11]; 47 µM in assay [12]. For the same molecule, the IC50 in assay [13] worked out at 36 µM.
In the case of `Nc1ncc(I)c(-c2c[nH]c3c([N+](=O)[O-])cccc23)n1`, the IC50 in [1] is 460 nM; in [2], 41 nM; in [3], greater than 10 µM; in assay [4], greater than 10 µM; in [5], 5.2 µM; in assay [6] it was 3.2 µM. In addition, the IC50 was greater than 10 µM in assay [7]; greater than 10 µM in assay [8]; greater than 10 µM in assay [9]; greater than 10000 nM in [10]; greater than 10 µM in [11]; 6 µM in [12]. This molecule returned an IC50 in assay [13] of 4.7 µM.
On to `Nc1ncc(I)c(-c2c[nH]c3cc([N+](=O)[O-])ccc23)n1`, for which the IC50 was 95 nM in assay [1]; 67 nM in [2]; 1.6 µM in assay [3]; 2.6 µM in [4]; 6.3 µM in assay [5]; 2 µM in [6]. The IC50 in assay [7] was 12 µM; in [8], 10 µM; in assay [9], greater than 25 µM; in assay [10], 1000 nM; in assay [11], 18 µM; in assay [12], 11 µM. The IC50 in assay [13] amounted to 13 µM.
With `Nc1ncc(I)c(-c2c[nH]c3cccc(N)c23)n1`, the IC50 is 2800 nM in [1]; 1000 nM in assay [2]; greater than 10 µM in assay [3]; greater than 10 µM in [4]; greater than 50 µM in assay [5]; 18 µM in assay [6]. Moreover, the IC50 was greater than 10 µM in assay [7]; greater than 10 µM in [8]; greater than 10 µM in assay [9]; greater than 10000 nM in [10]; greater than 10 µM in assay [11]; greater than 50 µM in assay [12]. Further, the IC50 in assay [13] was greater than 50 µM.
For the molecule `Nc1ncc(-c2ccc(C(F)(F)F)cc2)c(-c2c[nH]c3c(Br)cccc23)n1`, the IC50 was 1250 nM in assay [1]; 1500 nM in assay [2]; greater than 10 µM in assay [3]; 8.5 µM in [4]; 18 µM in [5]; 17 µM in assay [6]. Moreover, the IC50 was greater than 10 µM in assay [7]; greater than 10 µM in assay [8]; greater than 10 µM in assay [9]; greater than 10000 nM in assay [10]; greater than 10 µM in assay [11]; 8 µM in assay [12]. The same molecule came in with an IC50 in assay [13] of 14 µM.
